{
  "source": "patent US9636418B2",
  "about": "(priority 2013, dated 2017)",
  "assay_in_all_cases": "cell-based",
  "key": {"hNav1.7 [1]": {"biological_target": "T1, hNav1.7 (Homo sapiens, UniProt Q15858)", "T1 sequence (Q15858 whole entry)": "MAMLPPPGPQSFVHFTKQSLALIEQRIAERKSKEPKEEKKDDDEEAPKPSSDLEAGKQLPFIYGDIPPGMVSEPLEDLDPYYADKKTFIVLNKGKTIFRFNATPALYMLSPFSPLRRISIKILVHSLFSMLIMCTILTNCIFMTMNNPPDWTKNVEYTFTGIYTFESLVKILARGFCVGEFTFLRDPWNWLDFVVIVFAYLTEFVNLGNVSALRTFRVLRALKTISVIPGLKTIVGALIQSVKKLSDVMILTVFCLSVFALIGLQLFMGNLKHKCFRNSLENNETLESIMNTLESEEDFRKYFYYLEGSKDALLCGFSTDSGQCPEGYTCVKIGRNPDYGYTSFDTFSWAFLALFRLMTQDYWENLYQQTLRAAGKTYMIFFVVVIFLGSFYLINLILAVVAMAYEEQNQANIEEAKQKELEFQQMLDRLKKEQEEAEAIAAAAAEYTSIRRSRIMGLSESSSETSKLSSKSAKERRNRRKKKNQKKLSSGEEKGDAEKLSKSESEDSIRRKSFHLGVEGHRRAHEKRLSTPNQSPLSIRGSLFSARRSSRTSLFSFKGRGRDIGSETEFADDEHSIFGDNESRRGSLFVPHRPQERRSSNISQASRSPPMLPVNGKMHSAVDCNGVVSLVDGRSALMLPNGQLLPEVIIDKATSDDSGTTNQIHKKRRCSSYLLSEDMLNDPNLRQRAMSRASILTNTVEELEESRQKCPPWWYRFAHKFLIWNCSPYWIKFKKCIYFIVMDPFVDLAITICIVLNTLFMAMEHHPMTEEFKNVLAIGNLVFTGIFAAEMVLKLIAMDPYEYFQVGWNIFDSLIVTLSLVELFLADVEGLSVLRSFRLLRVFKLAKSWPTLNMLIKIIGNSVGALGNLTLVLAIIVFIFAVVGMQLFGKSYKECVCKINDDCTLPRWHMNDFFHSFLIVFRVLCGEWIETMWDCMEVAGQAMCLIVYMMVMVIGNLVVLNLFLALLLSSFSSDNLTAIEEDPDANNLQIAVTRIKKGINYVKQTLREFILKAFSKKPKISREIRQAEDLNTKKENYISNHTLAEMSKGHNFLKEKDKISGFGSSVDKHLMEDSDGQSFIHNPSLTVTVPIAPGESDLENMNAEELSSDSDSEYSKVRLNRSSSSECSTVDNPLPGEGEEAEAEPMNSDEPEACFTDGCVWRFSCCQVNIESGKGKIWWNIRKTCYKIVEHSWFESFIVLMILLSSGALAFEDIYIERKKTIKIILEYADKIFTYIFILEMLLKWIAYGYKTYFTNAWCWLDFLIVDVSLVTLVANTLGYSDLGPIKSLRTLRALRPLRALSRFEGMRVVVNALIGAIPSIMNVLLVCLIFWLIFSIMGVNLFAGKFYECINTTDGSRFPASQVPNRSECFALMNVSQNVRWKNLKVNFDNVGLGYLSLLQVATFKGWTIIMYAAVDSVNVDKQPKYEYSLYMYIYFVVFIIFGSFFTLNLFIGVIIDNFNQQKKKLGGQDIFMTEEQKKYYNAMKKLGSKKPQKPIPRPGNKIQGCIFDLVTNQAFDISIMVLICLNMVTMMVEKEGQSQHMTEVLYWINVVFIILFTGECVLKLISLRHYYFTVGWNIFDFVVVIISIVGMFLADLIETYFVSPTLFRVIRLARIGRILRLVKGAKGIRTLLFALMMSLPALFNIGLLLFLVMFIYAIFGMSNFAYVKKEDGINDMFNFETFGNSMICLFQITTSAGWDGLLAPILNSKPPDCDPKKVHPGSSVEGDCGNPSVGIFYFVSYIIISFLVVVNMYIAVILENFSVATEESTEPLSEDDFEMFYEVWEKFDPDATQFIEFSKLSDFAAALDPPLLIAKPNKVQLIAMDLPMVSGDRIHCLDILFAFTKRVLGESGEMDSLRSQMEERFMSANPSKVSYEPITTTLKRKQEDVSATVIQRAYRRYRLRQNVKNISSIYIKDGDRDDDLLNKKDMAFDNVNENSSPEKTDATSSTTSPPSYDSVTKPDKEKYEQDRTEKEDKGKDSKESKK", "conditions": "IonWorks Quattro; read-out: IC50 Nav1.7"}, "hNav1.4 [2]": {"biological_target": "T2, hNav1.4 (Homo sapiens, UniProt P35499)", "T2 sequence (P35499 whole entry)": "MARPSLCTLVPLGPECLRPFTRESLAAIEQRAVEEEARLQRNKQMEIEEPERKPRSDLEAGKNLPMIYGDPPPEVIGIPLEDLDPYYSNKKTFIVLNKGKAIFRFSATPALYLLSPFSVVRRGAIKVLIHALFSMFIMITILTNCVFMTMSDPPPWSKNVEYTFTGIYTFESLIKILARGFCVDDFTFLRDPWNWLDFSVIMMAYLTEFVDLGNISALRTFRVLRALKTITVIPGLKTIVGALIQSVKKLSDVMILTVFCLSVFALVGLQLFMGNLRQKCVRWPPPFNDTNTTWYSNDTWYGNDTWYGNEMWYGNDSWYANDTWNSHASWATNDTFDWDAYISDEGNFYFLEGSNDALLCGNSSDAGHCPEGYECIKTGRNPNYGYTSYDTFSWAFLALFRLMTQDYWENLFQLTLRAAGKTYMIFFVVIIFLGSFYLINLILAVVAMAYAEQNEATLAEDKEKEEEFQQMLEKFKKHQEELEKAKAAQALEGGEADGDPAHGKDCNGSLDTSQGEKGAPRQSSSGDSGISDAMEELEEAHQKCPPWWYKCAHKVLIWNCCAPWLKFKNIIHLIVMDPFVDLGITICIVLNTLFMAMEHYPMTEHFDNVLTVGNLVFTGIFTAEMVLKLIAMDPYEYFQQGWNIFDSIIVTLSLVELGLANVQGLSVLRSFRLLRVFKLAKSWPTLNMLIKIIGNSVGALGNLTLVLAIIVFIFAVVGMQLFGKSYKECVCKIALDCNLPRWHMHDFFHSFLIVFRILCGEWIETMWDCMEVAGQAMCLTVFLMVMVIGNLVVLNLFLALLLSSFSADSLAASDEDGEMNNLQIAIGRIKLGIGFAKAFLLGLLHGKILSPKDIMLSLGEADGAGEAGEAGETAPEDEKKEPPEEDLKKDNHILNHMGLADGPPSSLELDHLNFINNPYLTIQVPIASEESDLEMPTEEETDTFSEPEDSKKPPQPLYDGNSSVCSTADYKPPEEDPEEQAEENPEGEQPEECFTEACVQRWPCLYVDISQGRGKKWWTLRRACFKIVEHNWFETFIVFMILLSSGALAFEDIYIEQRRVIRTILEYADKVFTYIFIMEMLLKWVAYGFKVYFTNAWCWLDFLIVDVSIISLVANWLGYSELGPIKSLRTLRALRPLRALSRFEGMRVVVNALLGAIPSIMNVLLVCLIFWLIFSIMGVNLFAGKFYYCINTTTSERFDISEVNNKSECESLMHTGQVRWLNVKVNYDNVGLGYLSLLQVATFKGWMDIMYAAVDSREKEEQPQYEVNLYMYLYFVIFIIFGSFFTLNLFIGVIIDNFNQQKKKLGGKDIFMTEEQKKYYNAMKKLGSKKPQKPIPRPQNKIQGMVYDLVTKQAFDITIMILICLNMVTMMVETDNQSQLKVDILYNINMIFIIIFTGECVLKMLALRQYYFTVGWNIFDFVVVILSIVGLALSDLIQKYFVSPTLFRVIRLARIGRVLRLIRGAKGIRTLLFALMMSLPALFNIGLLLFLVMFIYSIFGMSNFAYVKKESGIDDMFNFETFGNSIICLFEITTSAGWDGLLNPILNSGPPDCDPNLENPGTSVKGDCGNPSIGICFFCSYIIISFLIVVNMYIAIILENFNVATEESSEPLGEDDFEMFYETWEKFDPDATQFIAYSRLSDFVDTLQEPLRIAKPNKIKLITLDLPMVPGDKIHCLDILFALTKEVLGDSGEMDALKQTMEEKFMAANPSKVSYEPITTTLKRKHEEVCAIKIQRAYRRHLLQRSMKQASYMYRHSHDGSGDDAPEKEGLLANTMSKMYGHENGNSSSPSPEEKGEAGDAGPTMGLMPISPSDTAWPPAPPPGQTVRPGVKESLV", "conditions": "ratio of IonWorks Quattro IC50 values"}, "hNav1.7 [3]": {"biological_target": "T1, hNav1.7", "type": "cell-based", "conditions": "PatchXpress, tonic block; read-out: PX hNav1.7 Tonic IC50"}, "hNav1.4 [4]": {"biological_target": "T2, hNav1.4"}, "hNav1.5": {"biological_target": "hNav1.5 (Homo sapiens, UniProt Q14524)"}},
  "note": "Where two headings read alike, the source gives them in different places.",
  "data": [
    {"molecule": "CC[C@H](C)[C@H](NC(=O)[C@@H](NC(=O)[C@H](CCCCN)NC(=O)[C@H](CCCNC(=N)N)NC(=O)[C@@H]1CSSC[C@@H]2NC(=O)[C@H](C)NC(=O)[C@H](CCCNC(=N)N)NC(=O)[C@H](CCCCN)NC(=O)[C@H](CO)NC(=O)[C@H](CC(=O)O)NC(=O)[C@@H]3CSSC[C@H](NC(=O)[C@H](CCC(=O)O)NC(=O)[C@H](CC(C)C)NC(=O)CNC(=O)[C@H](CCC(=O)O)NC(=O)[C@H](CSSC[C@H](NC(=O)[C@@H](N)Cc4ccc(O)cc4)C(=O)N[C@@H](CCC(N)=O)C(=O)N[C@@H](CCCCN)C(=O)N[C@@H](Cc4c[nH]c5ccccc45)C(=O)N[C@@H](CCSC)C(=O)N[C@@H](Cc4c[nH]c5ccccc45)C(=O)N[C@@H](Cc4cn(CCCOCCOCCOCCOCCOCCOCCOCCOCCOCCOCCN)nn4)C(=O)N3)NC2=O)C(=O)N[C@@H](CCCCN)C(=O)N[C@@H](CC(C)C)C(=O)N[C@@H](Cc2c[nH]c3ccccc23)C(=O)N1)[C@@H](C)CC)C(N)=O", "note": "[compound 171]", "values": [
      {"measurement": "IC50", "setting": "hNav1.7 [1]", "value": "≥ 5000", "unit": "nM"},
      {"measurement": "Nav1.4/Nav1.7", "setting": "hNav1.4 [2]", "value": 1}
    ]},
    {"molecule": "CC[C@H](C)[C@H](NC(=O)[C@H](CCCCN)NC(=O)[C@H](CCCNC(=N)N)NC(=O)[C@@H]1CSSC[C@@H]2NC(=O)[C@H](C)NC(=O)[C@H](CCCNC(=N)N)NC(=O)[C@H](CCCCN)NC(=O)[C@H](CO)NC(=O)[C@H](CC(=O)O)NC(=O)[C@@H]3CSSC[C@H](NC(=O)[C@H](CCC(=O)O)NC(=O)[C@H](CC(C)C)NC(=O)CNC(=O)[C@H](CCC(=O)O)NC(=O)[C@H](CSSC[C@H](NC(=O)[C@@H](N)Cc4ccc(O)cc4)C(=O)N[C@@H](CCC(N)=O)C(=O)N[C@@H](CCCCN)C(=O)N[C@@H](Cc4c[nH]c5ccccc45)C(=O)N[C@@H](CCSC)C(=O)N[C@@H](Cc4c[nH]c5ccccc45)C(=O)N[C@@H]([C@@H](C)O)C(=O)N3)NC2=O)C(=O)N[C@@H](CCCCN)C(=O)N[C@@H](CC(C)C)C(=O)N[C@@H](Cc2c[nH]c3ccccc23)C(=O)N1)C(=O)N[C@@H](Cc1cn(CCCOCCOCCOCCOCCOCCOCCOCCOCCOCCOCCN)nn1)C(N)=O", "note": "[compound 188]", "values": [
      {"measurement": "IC50", "setting": "hNav1.7 [1]", "value": "≥ 5000", "unit": "nM"},
      {"measurement": "Nav1.4/Nav1.7", "setting": "hNav1.4 [2]", "value": 1}
    ]},
    {"molecule": "C#CC[C@H](N)C(=O)NCCOCCOCCOCCOCCOCCOCCOCCOCCOCCOCCOCCOCCC(=O)NCCCC[C@@H]1NC(=O)[C@H](CCCNC(=N)N)NC(=O)[C@H](CCCCN)NC(=O)[C@H](CO)NC(=O)[C@H](CC(=O)O)NC(=O)[C@@H]2CSSC[C@@H]3NC(=O)[C@H](CCC(=O)O)NC(=O)[C@H](CC(C)C)NC(=O)CNC(=O)[C@H](CCC(=O)O)NC(=O)[C@H](CSSC[C@H](NC(=O)[C@@H](N)Cc4ccc(O)cc4)C(=O)N[C@@H](CCC(N)=O)C(=O)N[C@@H](CCCCN)C(=O)N[C@@H](Cc4c[nH]c5ccccc45)C(=O)N[C@@H](CCCC)C(=O)N[C@@H](Cc4c[nH]c5ccccc45)C(=O)N[C@@H]([C@@H](C)O)C(=O)N2)NC(=O)[C@H](CSSC[C@@H](C(=O)N[C@@H](CCCNC(=N)N)C(=O)N[C@@H](CCCCN)C(=O)N[C@H](C(=O)N[C@@H](Cc2c[nH]c4ccccc24)C(N)=O)[C@@H](C)CC)NC(=O)[C@H](Cc2c[nH]c4ccccc24)NC(=O)[C@H](CC(C)C)NC(=O)[C@H](CCCCN)NC3=O)NC1=O", "note": "[compound 290]", "values": [
      {"measurement": "IC50", "setting": "hNav1.7 [1]", "value": 52, "unit": "nM"},
      {"measurement": "IC50", "setting": "hNav1.7 [3]", "value": 520, "unit": "nM"},
      {"measurement": "IC50", "setting": "hNav1.4 [4]; PatchXpress, tonic block, read-out: PX hNav1.4 Tonic IC50", "value": 2730, "unit": "nM"},
      {"measurement": "Nav1.4/Nav1.7", "setting": "hNav1.4 [4]; ratio of PX tonic IC50 values", "value": 5},
      {"measurement": "IC50", "setting": "hNav1.5; PatchXpress, tonic block, read-out: PX hNav1.5 Tonic IC50", "value": 6.1, "unit": "µM"},
      {"measurement": "Nav1.5/Nav1.7", "setting": "hNav1.5; ratio of PX tonic IC50 values", "value": 12}
    ]},
    {"molecule": "C#CC[C@H](N)C(=O)N[C@@H](Cc1ccc(O)cc1)C(=O)N[C@H]1CSSC[C@@H]2NC(=O)[C@@H]3CSSC[C@@H](C(=O)N[C@@H](CCCNC(=N)N)C(=O)N[C@@H](CCCCN)C(=O)N[C@H](C(=O)N[C@@H](Cc4c[nH]c5ccccc45)C(N)=O)[C@@H](C)CC)NC(=O)[C@H](Cc4c[nH]c5ccccc45)NC(=O)[C@H](CC(C)C)NC(=O)[C@H](CCCCN)NC(=O)[C@H](CSSC[C@H](NC(=O)[C@H]([C@@H](C)O)NC(=O)[C@H](Cc4c[nH]c5ccccc45)NC(=O)[C@H](CCSC)NC(=O)[C@H](Cc4c[nH]c5ccccc45)NC(=O)[C@H](CCCCN)NC(=O)[C@H](CCC(N)=O)NC1=O)C(=O)N[C@@H](CC(=O)O)C(=O)N[C@@H](CO)C(=O)N[C@@H](CCCCN)C(=O)N[C@@H](CCCNC(=N)N)C(=O)N[C@@H](C)C(=O)N3)NC(=O)[C@H](CCC(=O)O)NC(=O)[C@H](CC(C)C)NC(=O)CNC(=O)[C@H](CCC(=O)O)NC2=O", "note": "[compound 295]", "values": [
      {"measurement": "IC50", "setting": "hNav1.7 [1]", "value": 18, "unit": "nM"}
    ]},
    {"molecule": "C#CC[C@H](N)C(=O)N[C@@H](Cc1ccc(O)cc1)C(=O)N[C@H]1CSSC[C@@H]2NC(=O)[C@@H]3CSSC[C@@H](C(=O)N[C@@H](CCCNC(=N)N)C(=O)N[C@@H](CCCCN)C(=O)N[C@H](C(=O)N[C@@H](Cc4c[nH]c5ccccc45)C(N)=O)[C@@H](C)CC)NC(=O)[C@H](Cc4c[nH]c5ccccc45)NC(=O)[C@H](CC(C)C)NC(=O)[C@H](CCCCN)NC(=O)[C@H](CSSC[C@H](NC(=O)[C@H]([C@@H](C)O)NC(=O)[C@H](Cc4c[nH]c5ccccc45)NC(=O)[C@H](CCCC)NC(=O)[C@H](Cc4c[nH]c5ccccc45)NC(=O)[C@H](CCCCN)NC(=O)[C@H](CCC(N)=O)NC1=O)C(=O)N[C@@H](CC(=O)O)C(=O)N[C@@H](CO)C(=O)N[C@@H](CCCCN)C(=O)N[C@@H](CCCNC(=N)N)C(=O)N[C@@H](C)C(=O)N3)NC(=O)[C@H](CCCNC(=N)N)NC(=O)[C@H](CC(C)C)NC(=O)CNC(=O)[C@H](CCC(=O)O)NC2=O", "note": "[compound 296]", "values": [
      {"measurement": "IC50", "setting": "hNav1.7 [1]", "value": 19, "unit": "nM"}
    ]},
    {"molecule": "C#CC[C@H](N)C(=O)N[C@@H](Cc1ccc(O)cc1)C(=O)N[C@H]1CSSC[C@@H]2NC(=O)[C@@H]3CSSC[C@@H](C(=O)N[C@@H](CCCNC(=N)N)C(=O)N[C@@H](CCCCN)C(=O)N[C@H](C(=O)N[C@@H](Cc4ccccc4)C(N)=O)[C@@H](C)CC)NC(=O)[C@H](Cc4c[nH]c5ccccc45)NC(=O)[C@H](CC(C)C)NC(=O)[C@H](CCCCN)NC(=O)[C@H](CSSC[C@H](NC(=O)[C@H]([C@@H](C)O)NC(=O)[C@H](Cc4c[nH]c5ccccc45)NC(=O)[C@H](CCCC)NC(=O)[C@H](Cc4c[nH]c5ccccc45)NC(=O)[C@H](CCCCN)NC(=O)[C@H](CCC(N)=O)NC1=O)C(=O)N[C@@H](CC(=O)O)C(=O)N[C@@H](CO)C(=O)N[C@@H](CCCCN)C(=O)N[C@@H](CCCNC(=N)N)C(=O)N[C@@H](C)C(=O)N3)NC(=O)[C@H](CCC(=O)O)NC(=O)[C@H](CC(C)C)NC(=O)CNC(=O)[C@H](CCC(=O)O)NC2=O", "note": "[compound 301]", "values": [
      {"measurement": "IC50", "setting": "hNav1.7 [1]", "value": 35, "unit": "nM"}
    ]},
    {"molecule": "CCCC[C@@H]1NC(=O)[C@H](Cc2c[nH]c3ccccc23)NC(=O)[C@H](CCCCN)NC(=O)[C@H](CCC(N)=O)NC(=O)[C@@H](NC(=O)[C@@H](N)Cc2ccc(O)cc2)CSSC[C@@H]2NC(=O)[C@@H]3CSSC[C@@H](C(=O)N[C@@H](CCCNC(=N)N)C(=O)N[C@@H](CCCCN)C(=O)N[C@@H](Cc4ccc(O)cc4)C(=O)N[C@H](C(N)=O)[C@@H](C)CC)NC(=O)[C@H](Cc4c[nH]c5ccccc45)NC(=O)[C@H](CC(C)C)NC(=O)[C@H](CCCCN)NC(=O)[C@H](CSSC[C@H](NC(=O)[C@H]([C@@H](C)O)NC(=O)[C@H](Cc4c[nH]c5ccccc45)NC1=O)C(=O)N[C@@H](CC(=O)O)C(=O)N[C@@H](CO)C(=O)N[C@@H](CCCCN)C(=O)N[C@@H](CCCNC(=N)N)C(=O)N[C@@H](C)C(=O)N3)NC(=O)[C@H](CCC(=O)O)NC(=O)[C@H](CC(C)C)NC(=O)CNC(=O)[C@H](CCCCN=[N+]=[N-])NC2=O", "note": "[compound 322]", "values": [
      {"measurement": "IC50", "setting": "hNav1.7 [1]", "value": 67, "unit": "nM"}
    ]}
  ]
}
